Measurements as given in patent publication US4248863A, “Antibiotics saframycins A, B, C, D and E and process for producing the same” (priority 1977, dated 1981).
Where two headings read alike, the source gives them in different places.

Columns and labels:
Corynebacterium xerosis = test: Antimicrobial spectrum, MIC (Table 4); format: cell-based; settings: 1% glucose nutrient agar, 37° C., 24 or 48 hours
Nocardia asteroides = test: Antimicrobial spectrum, MIC (Table 4); format: cell-based; settings: 37° C., 24 or 48 hours
Rhodotorula glutinis = test: Antimicrobial spectrum, MIC (Table 4)
Bacillus cereus = test: Antimicrobial spectrum, MIC (Table 4); format: cell-based; settings: 1% glucose nutrient agar, 37° C., 24 or 48 hours
Streptococcus faecalis = test: Antimicrobial spectrum, MIC (Table 4); format: cell-based; settings: 1% glucose nutrient agar, 37° C., 24 or 48 hours
[1] = tested on: Streptococcus pyogenes 090R; test: Antimicrobial spectrum, MIC (Table 4); format: cell-based; settings: blood agar, 37° C., 24 or 48 hours
[2] = tested on: Shigella dysenteriae Shiga; test: microbe, parasite or virus in culture; format: cell-based
Staphylococcus citreus = test: Antimicrobial spectrum, MIC (Table 4); format: cell-based; settings: 1% glucose nutrient agar, 37° C., 24 or 48 hours
[3] = tested on: Staphylococcus aureus 209P; test: Antimicrobial spectrum, MIC (Table 4); format: cell-based; settings: 1% glucose nutrient agar, 37° C., 24 or 48 hours
[4] = tested on: Corynebacterium dephtheriae; test: Antimicrobial spectrum, MIC (Table 4); format: cell-based; settings: 1% glucose nutrient agar, 37° C., 24 or 48 hours
Salmonella typhimurium = test: Antimicrobial spectrum, MIC (Table 4); format: cell-based; settings: 1% glucose nutrient agar, 37° C., 24 or 48 hours
Mycobacterium sp. 607 = test: Antimicrobial spectrum, MIC (Table 4); format: cell-based; settings: 3% glycerol nutrient agar for acid-fast bacteria, 37° C., 24 or 48 hours
Mucor mucedo = test: Antimicrobial spectrum, MIC (Table 4)
[5] = tested on: Trichophyton mentagrophytes; test: Antimicrobial spectrum, MIC (Table 4)
Saccharomyces cerevisiae = test: Antimicrobial spectrum, MIC (Table 4)
Aspergillus niger = test: Antimicrobial spectrum, MIC (Table 4)
Pseudomonas aeruginosa = test: Antimicrobial spectrum, MIC (Table 4); format: cell-based; settings: 1% glucose nutrient agar, 37° C., 24 or 48 hours
Mycobacterium phlei = test: Antimicrobial spectrum, MIC (Table 4); format: cell-based; settings: 3% glycerol nutrient agar for acid-fast bacteria, 37° C., 24 or 48 hours
Aspergillus oryzae = test: Antimicrobial spectrum, MIC (Table 4)
[6] = tested on: Staphylococcus salivarius; test: Antimicrobial spectrum, MIC (Table 4); format: cell-based; settings: 1% glucose nutrient agar, 37° C., 24 or 48 hours
Micrococcus luteus = test: Antimicrobial spectrum, MIC (Table 4); format: cell-based; settings: 1% glucose nutrient agar, 37° C., 24 or 48 hours
Candida albicans = test: Antimicrobial spectrum, MIC (Table 4)
Staphylococcus albus = test: Antimicrobial spectrum, MIC (Table 4); format: cell-based; settings: 1% glucose nutrient agar, 37° C., 24 or 48 hours
Brucella abortus = test: microbe, parasite or virus in culture; format: cell-based
Serratia marcescens = test: Antimicrobial spectrum, MIC (Table 4); format: cell-based; settings: 1% glucose nutrient agar, 37° C., 24 or 48 hours
Streptococcus pyogenes = test: Antimicrobial spectrum, MIC (Table 4); format: cell-based; settings: blood agar, 37° C., 24 or 48 hours
Klebsiella pneumoniae = test: Antimicrobial spectrum, MIC (Table 4); format: cell-based; settings: 1% glucose nutrient agar, 37° C., 24 or 48 hours
Mycobacterium avium = test: Antimicrobial spectrum, MIC (Table 4); format: cell-based; settings: 3% glycerol nutrient agar for acid-fast bacteria, 37° C., 24 or 48 hours
Penicillium glaucum = test: Antimicrobial spectrum, MIC (Table 4)
[7] = tested on: Staphylococcus aureus Smith; test: Antimicrobial spectrum, MIC (Table 4); format: cell-based; settings: 1% glucose nutrient agar, 37° C., 24 or 48 hours
Escherichia coli = test: Antimicrobial spectrum, MIC (Table 4); format: cell-based; settings: 1% glucose nutrient agar, 37° C., 24 or 48 hours
Bacillus subtilis = test: Antimicrobial spectrum, MIC (Table 4); format: cell-based; settings: 1% glucose nutrient agar, 37° C., 24 or 48 hours
in vivo = settings: mouse, ip
[8] = Sabouraud.dextrose.agar, 27° C., 48 hours

COC1=C(C)C(=O)C2=C(C1=O)[C@H](CNC(=O)C(C)=O)N1C[C@@H]3[C@@H](O)c4c(O)c(C)c(OC)c(O)c4[C@H]([C@@H]1C2)N3C [saframycin E]
Sparingly soluble: Solubility (Solubility; acetone) | Solubility (Solubility; chloroform) | Solubility (Solubility; esters)
Easily soluble: Solubility (Solubility; lower alcohols) | Solubility (Solubility; pyridine)
50.0 µg/mL: MIC (Klebsiella pneumoniae) | MIC [7]
> 100.0 µg/mL: MIC (Rhodotorula glutinis; [8]) | MIC (Streptococcus faecalis) | MIC ([2]; 1% glucose nutrient agar, 37° C., 24 or 48 hours) | MIC (Salmonella typhimurium) | MIC (Mucor mucedo; [8]) | MIC ([5]; Sabouraud.dextrose.agar, 27° C., 72 hours) | MIC (Saccharomyces cerevisiae; [8]) | MIC (Aspergillus niger; [8]) | MIC (Pseudomonas aeruginosa) | MIC (Aspergillus oryzae; [8]) | MIC (Candida albicans; [8]) | MIC (Serratia marcescens) | MIC (Streptococcus pyogenes) | MIC (Penicillium glaucum; [8]) | MIC (Escherichia coli)
100.0 µg/mL: MIC (Staphylococcus citreus) | MIC [3] | MIC [4] | MIC (Mycobacterium sp. 607) | MIC [6] | MIC (Staphylococcus albus) | MIC (Mycobacterium avium) | MIC (Bacillus subtilis)
12.5 µg/mL: MIC (Micrococcus luteus)
Insoluble: Solubility (Solubility; n-hexane) | Solubility (Solubility; water)
25.0 µg/mL: MIC (Corynebacterium xerosis) | MIC (Nocardia asteroides) | MIC (Bacillus cereus) | MIC [1] | MIC (Mycobacterium phlei) | MIC (Brucella abortus; blood agar, 37° C., 24 or 48 hours)

COC1=C(C)C(=O)C2=C(C1=O)C1C3CC4=C(C(=O)C(OC)=C(C)C4=O)C(CNC(=O)C(C)=O)N3CC(C2)N1C (stereo not drawn) [saframycin B]
12.5 µg/mL: MIC (Corynebacterium xerosis; Corynebacterium xerosis, read-out: MIC) | MIC (Staphylococcus citreus; Staphylococcus, read-out: MIC) | MIC ([3]; Staphylococcus aureus, 209P, read-out: MIC) | MIC (Staphylococcus albus; Staphylococcus, read-out: MIC) | MIC (Streptococcus pyogenes; Streptococcus pyogenes, read-out: MIC) | MIC (Klebsiella pneumoniae; Klebsiella pneumoniae, read-out: MIC)
1.56 µg/mL: MIC (Micrococcus luteus; Micrococcus luteus, read-out: MIC) | MIC ([7]; Staphylococcus aureus, read-out: MIC)
0.4 µg/mL: MIC ([4]; Corynebacterium, read-out: MIC)
25 µg/mL: MIC ([1]; Streptococcus pyogenes, 090R, read-out: MIC) | MIC (Bacillus subtilis; Bacillus subtilis, read-out: MIC)
50 µg/mL: MIC (Nocardia asteroides; Nocardia asteroides, read-out: MIC) | MIC (Mycobacterium phlei; Mycolicibacterium phlei, read-out: MIC) | MIC (Brucella abortus; Brucella abortus)
> 100 µg/mL: MIC (Rhodotorula glutinis; Rhodotorula glutinis, 48 h) | MIC (Streptococcus faecalis; Enterococcus faecalis, read-out: MIC) | MIC ([2]; Shigella dysenteriae) | MIC (Salmonella typhimurium; Salmonella enterica, TYPHIMURIUM, read-out: MIC) | MIC (Mucor mucedo; Mucor mucedo, 48 h) | MIC ([5]; Trichophyton mentagrophytes, 72 h) | MIC (Saccharomyces cerevisiae; Saccharomyces cerevisiae, 48 h) | MIC (Aspergillus niger; Aspergillus niger, 48 h) | MIC (Pseudomonas aeruginosa; Pseudomonas aeruginosa, read-out: MIC) | MIC (Aspergillus oryzae; Aspergillus oryzae, 48 h) | MIC (Candida albicans; Candida albicans, 48 h) | MIC (Serratia marcescens; Serratia marcescens, read-out: MIC) | MIC (Penicillium glaucum; Penicillium, 48 h) | MIC (Escherichia coli; Escherichia coli, read-out: MIC)
250 mg/kg: MTD (in vivo)
100 µg/mL: MIC (Bacillus cereus; Bacillus cereus, read-out: MIC) | MIC (Mycobacterium sp. 607; Mycobacterium, SP.607, read-out: MIC) | MIC ([6]; Staphylococcus, read-out: MIC) | MIC (Mycobacterium avium; Mycobacterium avium, read-out: MIC)
